Where two headings read alike, the source gives them in different places.
Assays:
Assay type in all cases: cell-based
hASCT1 = molecular target: T1, hASCT1 (Homo sapiens, UniProt P43007); assay: Electrophysiology (whole-cell current recording) of transfected HEK293 cells, hASCT1
T1 construct: expressed in transfected cells; host or cells: HEK293 (ATCC CRL-11268), transient transfection
T1 sequence (P43007 1-532): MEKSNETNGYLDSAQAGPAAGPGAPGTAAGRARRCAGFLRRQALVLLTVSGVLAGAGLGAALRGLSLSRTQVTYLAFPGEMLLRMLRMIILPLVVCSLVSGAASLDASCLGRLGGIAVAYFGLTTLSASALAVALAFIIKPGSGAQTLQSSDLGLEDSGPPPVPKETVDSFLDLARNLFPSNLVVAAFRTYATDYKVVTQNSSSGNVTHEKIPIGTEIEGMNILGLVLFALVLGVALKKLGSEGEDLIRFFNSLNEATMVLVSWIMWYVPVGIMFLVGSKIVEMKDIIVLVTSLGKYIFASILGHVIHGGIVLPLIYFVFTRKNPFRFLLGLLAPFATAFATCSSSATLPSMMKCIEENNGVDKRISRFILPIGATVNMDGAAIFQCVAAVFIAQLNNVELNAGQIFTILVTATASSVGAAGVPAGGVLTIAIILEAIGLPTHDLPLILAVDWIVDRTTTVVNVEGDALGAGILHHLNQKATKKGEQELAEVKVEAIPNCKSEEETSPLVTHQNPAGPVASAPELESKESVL
Method: (§1) Human embryonic kidney 293 (HEK293, ATCC CRL-11268) cells were cultured in DMEM media supplemented with 10% (v v) fetal bovine serum (FBS), 2 mM glutamine, 1% penicillin streptomycin solution, 1 mM sodium pyruvate and non-essential amino acids. Cells were maintained at 37° C. in a fully humidified atmosphere containing 5% CO2. rASCT2, hASCT2, hASCT1, EAAT1, EAAT2, EAAC1, EAAT5 and YFP complementary DNAs were each used to transiently transfect HEK293 using POLYPLUS Jet-prime transfection reagent. Cells were analyzed using electrophysiological techniques 24-40 hours after transfection.
(§2) Stock solutions of inhibitor was prepared in dimethyl sulfoxide (DMSO) up to 100 mM. Dilutions to working concentrations were made using external buffer. […] For rASCT2, hASCT2 and hASCT1, external buffer contained 140 mM NaCl, 2 mM MgCl2, 2 mM CaCl2), and 10 mM HEPES, pH 7.40 while internal pipette solution comprised of 130 mM NaSCN, 2 mM MgCl2, 10 mM EGTA, 10 mM HEPES and 10 mM alanine, pH 7.40. For specificity experiments with EAAT1, EAAT2, EAAC1 and EAAT5, internal solution contained 10 mM glutamate instead of alanine. Compounds were applied to HEK293 cells expressing DNA of interest suspended from a current recording electrode in whole cell configuration through a rapid solution exchange device. Cells are immersed in external buffer bath used to dissolve the inhibitors. The open pipette resistance was between 3 and 6 MΩ. Series resistance was not compensated in these experiments due to relatively small currents. Currents traces were recorded using an Adams and List EPC7 amplifier and digitized using a Molecular Devices Digidata A/D converter.
(§3) Linear and nonlinear curve fitting of the experimental data were analyzed using MicroCal Origin software. Nonlinear dose-response relationships were fitted with a Michaelis-Menten-like equation to obtain apparent Ki values in the absence of substrate (see TABLE 2 for Ki values). The figures show representative current traces and dose-response curves for hACST2 and rASCT2, used to obtain Ki values in TABLE 2 for compound SN 40. At least four experiments were performed with at least three different cells. Error bars in all graphs, e.g., in FIG. 1B and FIG. 1C and tables (Ki values) represent mean±SD.

rASCT2 = molecular target: T2, rASCT2 (Rattus norvegicus, UniProt D3ZJ25); assay: Electrophysiology (whole-cell current recording) of transfected HEK293 cells, rASCT2
T2 construct: expressed in transfected cells; host or cells: HEK293 (ATCC CRL-11268), transient transfection
T2 sequence (D3ZJ25 1-555): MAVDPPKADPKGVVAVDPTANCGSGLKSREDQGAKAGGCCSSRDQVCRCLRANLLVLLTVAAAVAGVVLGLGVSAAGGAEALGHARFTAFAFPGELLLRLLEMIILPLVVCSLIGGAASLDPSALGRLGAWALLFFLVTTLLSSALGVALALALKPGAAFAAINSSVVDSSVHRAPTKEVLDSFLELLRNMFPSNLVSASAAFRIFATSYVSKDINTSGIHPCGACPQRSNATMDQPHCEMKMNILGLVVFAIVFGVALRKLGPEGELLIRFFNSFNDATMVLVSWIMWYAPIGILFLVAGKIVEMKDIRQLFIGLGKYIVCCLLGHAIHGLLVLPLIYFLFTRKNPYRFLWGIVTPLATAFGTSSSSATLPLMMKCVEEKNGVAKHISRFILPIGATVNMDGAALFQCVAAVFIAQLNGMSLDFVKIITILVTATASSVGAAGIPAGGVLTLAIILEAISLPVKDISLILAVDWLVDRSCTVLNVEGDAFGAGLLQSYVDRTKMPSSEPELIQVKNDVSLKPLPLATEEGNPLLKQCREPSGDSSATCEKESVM
Method: as §1, §2, §3

hASCT2 = molecular target: T3, hASCT2 (Homo sapiens, UniProt Q15758); assay: Electrophysiology (whole-cell current recording) of transfected HEK293 cells, hASCT2
T3 construct: expressed in transfected cells; host or cells: HEK293 (ATCC CRL-11268), transient transfection
T3 sequence (Q15758 1-541): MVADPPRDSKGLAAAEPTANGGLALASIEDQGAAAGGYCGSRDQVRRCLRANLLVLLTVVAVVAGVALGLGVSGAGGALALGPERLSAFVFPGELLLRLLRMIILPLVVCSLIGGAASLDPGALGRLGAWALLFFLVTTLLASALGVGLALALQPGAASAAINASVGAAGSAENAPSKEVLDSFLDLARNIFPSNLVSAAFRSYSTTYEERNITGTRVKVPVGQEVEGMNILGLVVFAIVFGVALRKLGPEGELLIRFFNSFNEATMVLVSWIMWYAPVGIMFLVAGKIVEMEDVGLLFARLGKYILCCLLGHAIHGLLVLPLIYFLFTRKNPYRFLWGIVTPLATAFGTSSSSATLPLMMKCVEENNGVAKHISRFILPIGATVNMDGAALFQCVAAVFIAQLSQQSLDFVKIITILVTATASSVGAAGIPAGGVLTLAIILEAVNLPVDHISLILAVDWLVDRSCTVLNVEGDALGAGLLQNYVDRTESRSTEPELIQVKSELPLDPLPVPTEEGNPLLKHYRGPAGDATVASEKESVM
Method: as §1, §2, §3

EAAT1 = molecular target: T4, EAAT1 (Homo sapiens, UniProt P43003); assay: Electrophysiology specificity experiment in transfected HEK293 cells, EAAT1; conditions: apparent Ki, HEK293, internal solution 10 mM glutamate, mean ± SD
T4 construct: expressed in transfected cells; host or cells: HEK293 (ATCC CRL-11268), transient transfection
T4 sequence (P43003 whole entry, species assumed): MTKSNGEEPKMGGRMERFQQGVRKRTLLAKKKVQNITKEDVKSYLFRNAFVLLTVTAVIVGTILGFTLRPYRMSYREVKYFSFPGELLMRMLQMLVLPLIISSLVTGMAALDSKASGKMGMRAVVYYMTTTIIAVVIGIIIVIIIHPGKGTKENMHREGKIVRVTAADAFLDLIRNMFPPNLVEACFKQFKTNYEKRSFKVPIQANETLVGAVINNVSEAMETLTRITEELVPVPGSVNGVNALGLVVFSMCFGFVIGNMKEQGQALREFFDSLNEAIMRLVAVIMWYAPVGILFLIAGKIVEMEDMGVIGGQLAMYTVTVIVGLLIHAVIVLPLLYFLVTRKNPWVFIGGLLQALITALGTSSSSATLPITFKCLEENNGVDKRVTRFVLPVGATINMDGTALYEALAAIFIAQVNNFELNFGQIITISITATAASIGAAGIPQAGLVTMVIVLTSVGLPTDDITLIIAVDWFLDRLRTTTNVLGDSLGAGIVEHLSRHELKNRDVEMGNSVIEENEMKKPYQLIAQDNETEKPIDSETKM
Method: as §1, §2, §3

[1] = apparent Ki in the absence of substrate, HEK293, mean ± SD, read-out: Ki hASCT1
[2] = apparent Ki in the absence of substrate, HEK293, mean ± SD, read-out: Ki rASCT2
[3] = apparent Ki in the absence of substrate, HEK293, mean ± SD, read-out: Ki hASCT2
[4] = Table 3, dihydroxyproline derivatives, read-out: Ki All DNA: hASCT1
[5] = Table 3, dihydroxyproline derivatives, read-out: Ki All DNA: rASCT2
[6] = Table 3, dihydroxyproline derivatives, read-out: Ki All DNA: hASCT2

| Structure (SMILES) | Ki (hASCT1; [1]) [µM] | Ki (rASCT2; [2]) [nM] | Ki (hASCT2; [3]) [nM] | further results |
| --- | --- | --- | --- | --- |
| O=C(Nc1ccc(C(=O)N[C@@H]2CN[C@H](C(=O)O)C2)cc1)c1ccccc1 [SN 48] | 7.9 ± 0.5 | 12400 ± 1800 | 17300 ± 2100 | – |
| O=C(O[C@@H]1CN[C@H](C(=O)O)C1)c1ccc(OCc2ccccc2)cc1 [SN 21] | > 100 | 8170 ± 1100 | – | – |
| N[C@H](C(=O)O)[C@@H](O)COC(=O)c1ccc(-c2ccccc2)cc1 [SN 34] | – | 3630 ± 1100 | 10000 ± 2800 | – |
| O=C(O[C@@H]1CN[C@H](C(=O)O)C1)c1ccc(C(O)c2ccccc2)cc1 (stereo partly shown) [SN 13] | 43 ± 13.4 | 18800 ± 5000 | 5650 ± 1300 | Ki (EAAT1): 39.5 ± 19 µM |
| N[C@@H](COC(=O)c1ccc(C(O)c2ccccc2)cc1)C(=O)O (stereo partly shown) [SN 27] | – | 5170 ± 1200 | – | – |
| N[C@@H](CCOC(=O)c1ccc(-c2ccccc2)cc1)C(=O)O [SN 33] | – | 3510 ± 600 | 3500 ± 600 | – |
| O=C(O[C@@H]1CN[C@H](C(=O)O)C1)c1c2ccccc2cc2ccccc12 [SN 22] | – | 10000 ± 5100 | – | – |
| O=C(Nc1cccc(C(=O)O[C@@H]2CN[C@H](C(=O)O)C2)c1)c1ccc(C(F)(F)F)cc1 [SN 17] | 9.97 ± 0.5 | – | – | Ki (rASCT2; apparent Ki in the absence of substrate, HEK293, nM, read-out: Ki rASCT2): < 100 nM; Ki (hASCT2; apparent Ki in the absence of substrate, HEK293, nM, read-out: Ki hASCT2): < 100 nM |
| N[C@@H](COCc1ccc(-c2ccccc2)cc1)C(=O)O [SN 38] | – | 380 ± 170 | – | – |
| O=C(Nc1ccc(C(=O)O[C@@H]2CN[C@H](C(=O)O)C2)cc1)c1ccc(C(F)(F)F)cc1 [SN 15] | 8.51 ± 3.9 | 3370 ± 400 | 2940 ± 900 | Ki (EAAT1): 1.29 ± 0.2 µM |
| O=C(OC[C@@]1(O)CN[C@H](C(=O)O)C1)c1ccc(-c2cccc(F)c2)cc1F [SN60] | – | – | – | Ki (hASCT1; [4]): 8.15 µM; Ki (rASCT2; [5]): 4870 nM; Ki (hASCT2; [6]): 4610 nM |
| O=C(N[C@@H]1CN[C@H](C(=O)O)C1)c1ccc(-c2ccccc2)cc1 [SN 45] | – | 1680 ± 600 | 4690 ± 1100 | – |
| O=C(O[C@]1(CO)CN[C@H](C(=O)O)C1)c1ccc(-c2ccc(F)cc2)cc1 [SN74] | – | – | – | Ki (hASCT1; [4]): 2.45 µM; Ki (rASCT2; [5]): 2160 nM; Ki (hASCT2; [6]): 3200 nM |
| O=C(Nc1ccc(C(=O)O[C@@H]2CN[C@H](C(=O)O)C2)cc1)c1ccccc1 [SN 14] | – | 4580 ± 1100 | – | – |
| O=C(Nc1cccc(C(=O)N[C@@H]2CN[C@H](C(=O)O)C2)c1)c1ccccc1 [SN 47] | 141 ± 17.6 | 151000 ± 13300 | 227000 ± 34200 | – |
| O=C(O[C@@H]1CN[C@H](C(=O)O)C1)c1cccc(-c2ccccc2)c1 [SN 06] | – | 5630 ± 1000 | 5560 ± 4700 | – |
